According to article PMC12429880, “EGFR-Targeted Photodynamic Treatment of Triple Negative Breast Cancer Cell Lines Using Porphyrin–Peptide Conjugates: Synthesis and Mechanistic Insight” (Molecules, 2025):

Experiments:
MDA-MB231 [1] = assay: Intracellular ROS generation (DCFH-DA); assay type: cell-based; conditions: 24 h at IC50, 2 h irradiation with 10 μM DCFH-DA, 3 independent experiments
Protocol: (§1) Intracellular ROS generation was assessed using the fluorogenic probe 2′,7′-dichlorodihydrofluorescein diacetate (DCFH-DA; Invitrogen, Molecular Probes). Once internalized, DCFH-DA is hydrolyzed by intracellular esterases to form non-fluorescent dichlorodihydrofluorescein (DCFH), which ROS subsequently oxidizes to the highly fluorescent dichlorofluorescein (DCF). MDA-MB453 and MDA-MB231 cells were seeded in black 96-well plates and treated with the respective PSs at their IC50 concentrations for 24 h. Cells were then irradiated in the presence of 10 μM DCFH-DA. To quantify ROS production, fluorescence intensity was measured using a fluorescence microscope (excitation: 488 nm; emission: 520 nm). Quantitative analysis of fluorescence intensity, expressed in arbitrary fluorescence units, was performed using ImageJ software, version 1.53e, and normalized to untreated control samples.

MDA-MB453 [2] = assay: Intracellular ROS generation (DCFH-DA); assay type: cell-based; conditions: 24 h at IC50, 2 h irradiation with 10 μM DCFH-DA, 3 independent experiments
Protocol: as §1

[3] = Photostability (photobleaching) under irradiation; assay type: physicochemical
From the text: Compounds incorporating photosensitizing chromophores, such as tetrapyrrolic macrocycles, are susceptible to ROS-mediated photodegradation upon irradiation. Photostability of PSs is a critical parameter for achieving safe, effective, and precise PDT. It ensures sustained generation of ROS, minimizes the formation of potentially toxic or mutagenic degradation products, and preserves the structural and photophysical integrity of the PS during systemic circulation and tumor accumulation. High photostability is particularly important in delayed-activation protocols, enabling selective localization in target tissues. […] Thus, before assessing the photodynamic activity of the conjugates in TNBC cell lines, the photostability of 2 and conjugates 6, 7, and 8 was evaluated under the same conditions employed for the cell viability assays and the other biological studies reported in the present study. […]
To assess whether the peptide moiety underwent photoinduced degradation, samples of porphyrin 2 and its conjugates 6–8 were recovered and analyzed by HPLC at the end of the irradiation period.
For the chemical and biological analyses a 500 W tungsten white halogen lamp was used. […] The lamp has an irradiance of 22 mW/cm^2 (an average value determined between 380 and 780 nm with a Licor-1800 spectroradiometer, Li-COR, Bad Homburg, Germany), equating to 158 J/cm^2 of fluence over 2 h. […]

MDA-MB231 [4] = assay: Intrinsic (dark) cytotoxicity, MTT assay without photoactivation; assay type: cell-based; conditions: no photoactivation, ten times the maximum PDT concentration (10 µM), mean ± SD of 5 independent experiments, in % (unit assumed)
Protocol: (§2) The photodynamic effect of conjugates 6–8 on cell viability, compared to the reference compound 2, was evaluated using the MTT ([3-(4,5-dimethylthiazol-2-yl)-2,5-diphenyltetrazolium bromide]) assay. Briefly, 3.5 × 10^3 cells per well were seeded in 96-well plates and incubated for 48 h to allow for adherence and growth. Following this incubation period, cells were treated with increasing concentrations of the test compounds (ranging from 1 to 1000 nM), prepared in complete culture medium. All compound dilutions were prepared to ensure a final DMSO concentration of 0.1% (v/v), which is considered non-toxic. Control samples included cells cultured in complete medium alone, as well as a vehicle control treated with 0.1% DMSO in the absence of any compound (PS treatment was omitted). 24 h after treatment with PS, the medium was replaced with 1X PBS. Photoactivation was performed using a 500 W white tungsten halogen lamp, delivering an irradiance of 22 mW/cm^2, corresponding to a total fluence of 158 J/cm^2 over a 2 h irradiation period. To prevent thermal damage from the light source, a cooling system was employed by placing a circulating water filter between the lamp and the irradiation area to dissipate excess heat. Following irradiation, the PBS was replaced with fresh, PS-free culture medium, and cells were incubated at 37 °C. 24 h later, MTT was added to each well at a final concentration of 0.4 mg/mL, and cells were incubated for 3 h at 37 °C to allow the MTT metabolization in viable cells. The resulting formazan crystals were then dissolved in DMSO. Optical density was measured at 590 nm using an Infinite® 200 PRO plate reader (Tecan Life Sciences, Switzerland), and the resulting data were analyzed by non-linear regression using GraphPad PRISM 9.2.0 software (GraphPad Software Inc., San Diego, CA, USA), and IC50 values were extrapolated from these curves.
(§3) The potential intrinsic cytotoxicity of the compounds was assessed under identical experimental conditions, except that the photoactivation step was omitted. […]

MDA-MB453 [5] = assay: as above; assay type: cell-based; conditions: no photoactivation, ten times the maximum PDT concentration (10 µM), mean ± SD of 5 independent experiments, in % (unit assumed)
Protocol: as §2, §3

MCF7 = assay: as above; assay type: cell-based; conditions: no photoactivation, ten times the maximum PDT concentration (10 µM), mean ± SD of 5 independent experiments, in % (unit assumed)
Protocol: as §2, §3

Soret band intensity retained after irradiation ([3]; 10 μM in PBS, 2 h exposure to 500 W tungsten-halogen lamp, 22 mW/cm^2, 158 J/cm^2, UV-Vis): approximately 90%
SMILES: COC(=O)c1ccc(-c2c3nc(c([N+](=O)[O-])c4ccc([nH]4)c(-c4ccc(C(=O)OC)cc4)c4nc(cc5ccc2[nH]5)C=C4)C=C3)cc1 [compound 2, 10-Nitro-5,15-bis(4-carbomethoxyphenyl)porphyrin]
Intracellular ROS levels (MDA-MB231 [1]): higher levels of intracellular ROS
Intracellular ROS levels (MDA-MB453 [2]): higher levels of intracellular ROS
HPLC analysis at the end of the irradiation period (structural integrity) ([3]; after 2 h irradiation with 500 W tungsten-halogen lamp, HPLC): No shifts in retention times were observed
Survival fraction (dark toxicity) (MDA-MB231 [4]): 91.2 ± 1.26
Survival fraction (dark toxicity) (MDA-MB453 [5]): 90.8 ± 0.66
Survival fraction (dark toxicity) (MCF7): 89.7 ± 1.16
